What was measured:
bovine brain tubulin [1] = system: T1, bovine brain tubulin; assay: Colchicine binding assay; conditions: 5 μM (combretastatin A-4 1.6 μg/ml; TMPN 1.2 μg/ml); 10 min at 37° C.
T1 construct: Electrophoretically homogeneous bovine brain tubulin [12]
Method: (§1) Electrophoretically homogeneous bovine brain tubulin [12] was used in studies to evaluate the effects of TMPN on in vitro tubulin polymerization and the binding of […] (Dupont-NEN) to tubulin. These studies were performed as described previously. In the polymerization assay, varying drug concentrations were added to 1 mg/ml tubulin to determine the amount of drug that would inhibit the extent of the reaction by 50% (20 min incubation at 30° C.) (IC50 value). In the colchicine binding assay, the effect of varying drug concentrations on the binding of 2 μg/ml colchicine to 100 μg/ml tubulin was measured after 10 min at 37° C. (control reaction about 50% complete).

bovine brain tubulin [2] = system: T1, bovine brain tubulin; assay: Tubulin polymerization assay; format: biochemical; conditions: 1 mg/ml tubulin; 20 min incubation at 30° C.
Method: as §1

COc1ccc(/C=C\c2cc(OC)c(OC)c(OC)c2)cc1O [combretastatin A-4, reference compound]
inhibition of [^3H]colchicine binding to tubulin (bovine brain tubulin [1]): 98+1%
IC50 for inhibition of the extent of tubulin assembly (bovine brain tubulin [2]): 0.32 ± 0.02 µg/mL
